# Columns and labels:
# [1] = system: add_FL (RNA, riboswitch) GGGAAGAAACGCUUCAUAUAAUCCUAAUGAUAUGGUUUGGGAGUUUCUACCAAGAGCCUUAAACUCUUGAUUAUGAAGUCUGUCGCUUUAUCCCAAAUUUUAUAAAGAGAAGACUCAUGAAU; test: ITC; settings: 100 mM KCl, 10 mM MgCl2; 10 mM HEPES, pH 7.5, room temperature
# [2] = system: add_P1 (RNA, riboswitch) GGGAAGAUAUAAUCCUAAUGAUAUGGUUUGGGAGUUUCUACCAAGAGCCUUAAACUCUUGAUUAUCUUCUCUGUCGCUUUAUCCCAAAUUUUAUAAAGAGAAGACUCAUGAAU; test: ITC; settings: 100 mM KCl, 10 mM MgCl2; 10 mM HEPES, pH 7.5, room temperature
smiles,measurement,setting,value
Nc1ncnc2[nH]cnc12,Kd,[1],90.0 ± 0.96 nM
same,Kd,[2],67.6 ± 0.53 nM
